In PMC10178127, “Immunomodulatory Effects of the Pea Defensin Psd1 in the Caco-2/Immune Cells Co-Culture upon Candida albicans Infection” (International Journal of Molecular Sciences, 2023):

System: Caco-2 polarized monolayer
Assay: Multiplex xMAP cytokine production, Caco-2 monolayer without immune cells
Assay type: cell-based, human
Conditions: 24 h; for EGF level / Eotaxin level / FGF-2 level / FLT-3L level / Fractalkine level / G-CSF level / GM-CSF level / GROa level / IFNa2 level / IFNg level / IL-1RA level / IL-1a level / IL-1b level / IL-2 level / IL-3 level / IL-4 level / IL-5 level / IL-6 level / IL-7 level / IL-8 level / IL-9 level / IL-10 level / IL-12 (p40) level / IL-12 (p70) level / IL-13 level / IL-15 level / IL-17A level / IL-17E/IL-25 level / IL-17F level / IL-18 level / IL-22 level / IL-27 level / IP-10 level / M-GSF level / MCP-1 level / MCP-3 level / MDC level / MIG level / MIP-1a level / MIP-1b level / PDGF-AA level / PDGF-AB/BB level / RANTES level / TGF-a level / TNFa level / TNFb level / VEGFa level / sCD40L level: 2 µM apical, basolateral medium
Procedure: To estimate the impact of Candida albicans on cytokine production by intestinal-like epithelium, Caco-2 polarized monolayer without immune cells was used. […] A decrease in concentrations of IL-13 and IL-18 was also observed.
For growing cells, mimicking epithelial barriers in vitro, Caco-2 cells were seeded onto 24-well polycarbonate Millicell cell culture inserts (0.4 μm, 0.6 cm^2 surface area) (Millipore, Burlington, MA, USA), precoated with 0.2% bovine gelatin (Sigma-Aldrich), at a density of 2.5 × 10^5 cells/cm^2. The cells were grown for 21 days in a complete DMEM/F12 (1:1) medium with re-feeding every 2–3 days with a fresh complete medium. The integrity of the Caco-2 cell monolayer was checked by measuring the transepithelial electrical resistance (TEER) using a Millicell-ERS Voltohmmeter (Millipore). Only cell monolayers with TEER > 400 Ωcm^2 (after subtracting TEER in blank inserts without Caco-2 cells) were used in transport across epithelial monolayer and cytokine production experiments.
Monocytes and moDCs were seeded into the wells of 48- and 24-well plates in the complete RPMI-1640 medium supplemented with 10% human AB serum (HABS, Capricorn Scientific) without antibiotics 24 h prior to the experiment, and kept in a humidified CO2-incubator (5% CO2, 37 °C). After 24 h, the medium in the wells of the 48-well plate was replaced by fresh complete RPMI-1640 medium with 10% HABS, supplemented with 2 µM of Psd1 for the sample wells or fresh medium alone for the control wells. Medium in the wells of the 24-well plate was replaced by fresh complete RPMI-1640 medium with 10% human serum without antibiotics. Then, Millicell inserts with Caco-2 monolayers with TEER > 400 Ωcm^2 were placed into the wells of the 24-well plate, containing monocytes or moDCs. Wells with Millicell inserts with Caco-2 monolayers without immune cells were used as control wells. Medium in apical chambers of Millicell inserts was replaced by fresh complete RPMI-1640 with 10% human serum medium containing Psd1 at the final concentration of 2 µM or Candida albicans at the concentration of 5 × 10^4 cells/mL or yeast cells together with the pea defensin at the same concentration. Fresh complete RPMI-1640 medium only with 10% human serum and without antibiotics was used in control wells. Plates were kept in CO2-incubator (5% CO2, 37 °C) for another 24 h. Culture supernatants from the wells of the 48-well plate and basolateral chambers of the 24-well plate were collected and stored at −70 °C degrees less than one month prior to the analytes assessment.
The following 48 analytes were measured at a protein level by multiplex xMAP technology using the MILLIPLEX Human Cytokine/Chemokine/Growth Factor Panel A kit (HCYTA-60K-PX48, Merck, Darmstadt, Germany): sCD40L, EGF, Eotaxin-1/CCL11, FGF-2/FGF-basic, Flt-3 ligand, Fractalkine/CX3CL1, G-CSF, GM-CSF, GROα/CXCL1, IFNα2, IFNγ, IL-1α, IL-1β, IL-1RA, IL-2, IL-3, IL-4, IL-5, IL-6, IL-7, IL-8/CXCL8, IL-9, IL-10, IL-12(p40), IL-12(p70), IL-13, IL-15, IL-17A/CTLA8, IL-17E/IL-25, IL-17F, IL-18, IL-22, IL-27, IP-10/CXCL10, MCP-1/CCL2, MCP-3/CCL7, M-CSF, MDC/CCL22, MIG/CXCL9, MIP-1α/CCL3, MIP-1β/CCL4, PDGF-AA, PDGF-AB/BB, RANTES/CCL5, TGFα, TNFα, TNFβ, and VEGF-A. Multiplex-based assay read-out was performed using the MAGPIX system (Merck) with the xPONENT 4.2 software (Merck) in accordance with the manufacturer’s instruction with overnight incubation of the samples with primary antibodies. A final analysis was carried out with the MILLIPLEX Analyst v5.1 software (Merck). Measurements were performed twice for each sample. Release of the analytes in control and experimental samples was compared with an unpaired two-sample t-test using GraphPad Prism v.8.0.1 (GraphPad Software, Inc., San Diego, CA, USA). The p values ≤ 0.05 were considered significant.

Psd1: pea defensin from Pisum sativum (UNIPROT P81929), recombinant peptide overexpressed in Escherichia coli (KTCEHLADTYRGVCFTNASCDDHCKNKAHLISGTCHNWKCFCTQNC; UniProt P81929 1-46, looked up)
EGF level (Caco-2+Candida+Psd1): 1.19 pg/mL | Eotaxin level (Caco-2+Candida+Psd1): <3.52↓ pg/ml | FGF-2 level (Caco-2+Candida+Psd1): <13.35↓ pg/ml | FLT-3L level (Caco-2+Candida+Psd1): <0.40↓ pg/ml | Fractalkine level (Caco-2+Candida+Psd1): <17.82↓ pg/ml | G-CSF level (Caco-2+Candida+Psd1): <3.01↓ pg/ml | GM-CSF level (Caco-2+Candida+Psd1): <0.89↓ pg/ml | GROa level (Caco-2+Candida+Psd1): 34.82 pg/mL | IFNa2 level (Caco-2+Candida+Psd1): <4.56↓ pg/ml | IFNg level (Caco-2+Candida+Psd1): <2.23↓ pg/ml | IL-1RA level (Caco-2+Candida+Psd1): <0.66↓ pg/ml | IL-1a level (Caco-2+Candida+Psd1): <3.42↓ pg/ml | IL-1b level (Caco-2+Candida+Psd1): <2.26↓ pg/ml | IL-2 level (Caco-2+Candida+Psd1): <0.95↓ pg/ml | IL-3 level (Caco-2+Candida+Psd1): <0.60↓ pg/ml | IL-4 level (Caco-2+Candida+Psd1): <1.14↓ pg/ml | IL-5 level (Caco-2+Candida+Psd1): <0.30↓ pg/ml | IL-6 level (Caco-2+Candida+Psd1): 0.67 pg/mL | IL-7 level (Caco-2+Candida+Psd1): <0.38↓ pg/ml | IL-8 level (Caco-2+Candida+Psd1): 4.2 pg/mL | IL-9 level (Caco-2+Candida+Psd1): <2.08↓ pg/ml | IL-10 level (Caco-2+Candida+Psd1): <1.24↓ pg/ml | IL-12 (p40) level (Caco-2+Candida+Psd1): <3.56↓ pg/ml | IL-12 (p70) level (Caco-2+Candida+Psd1): <1.68↓ pg/ml | IL-13 level (Caco-2+Candida+Psd1): <2.61↓ pg/ml | IL-15 level (Caco-2+Candida+Psd1): <1.43↓ pg/ml | IL-17A level (Caco-2+Candida+Psd1): <2.09↓ pg/ml | IL-17E/IL-25 level (Caco-2+Candida+Psd1): <18.85↓ pg/ml | IL-17F level (Caco-2+Candida+Psd1): <19.03↓ pg/ml | IL-18 level (Caco-2+Candida+Psd1): 2.95 pg/mL | IL-22 level (Caco-2+Candida+Psd1): <5.23↓ pg/ml | IL-27 level (Caco-2+Candida+Psd1): <11.43↓ pg/ml | IP-10 level (Caco-2+Candida+Psd1): 5.8 pg/mL | M-GSF level (Caco-2+Candida+Psd1): <24.28↓ pg/ml | MCP-1 level (Caco-2+Candida+Psd1): <2.03↓ pg/ml | MCP-3 level (Caco-2+Candida+Psd1): <4.18↓ pg/ml | MDC level (Caco-2+Candida+Psd1): <0.30↓ pg/ml | MIG level (Caco-2+Candida+Psd1): <3.51↓ pg/ml | MIP-1a level (Caco-2+Candida+Psd1): <1.88↓ pg/ml | MIP-1b level (Caco-2+Candida+Psd1): <0.16↓ pg/ml | PDGF-AA level (Caco-2+Candida+Psd1): 160.02 pg/mL | PDGF-AB/BB level (Caco-2+Candida+Psd1): <5.84↓ pg/ml | RANTES level (Caco-2+Candida+Psd1): <0.62↓ pg/ml | TGF-a level (Caco-2+Candida+Psd1): <0.63↓ pg/ml | TNFa level (Caco-2+Candida+Psd1): <3.89↓ pg/ml | TNFb level (Caco-2+Candida+Psd1): 1.64 pg/mL | VEGFa level (Caco-2+Candida+Psd1): 197.1 pg/mL | sCD40L level (Caco-2+Candida+Psd1): <4.88↓ pg/ml | EGF level (Caco-2+Psd1): 1.19 pg/mL | Eotaxin level (Caco-2+Psd1): <3.52↓ pg/ml | FGF-2 level (Caco-2+Psd1): <13.35↓ pg/ml | FLT-3L level (Caco-2+Psd1): 0.46 pg/mL | Fractalkine level (Caco-2+Psd1): <17.82↓ pg/ml | G-CSF level (Caco-2+Psd1): <3.01↓ pg/ml | GM-CSF level (Caco-2+Psd1): <0.89↓ pg/ml | GROa level (Caco-2+Psd1): 27.77 pg/mL | IFNa2 level (Caco-2+Psd1): <4.56↓ pg/ml | IFNg level (Caco-2+Psd1): <2.23↓ pg/ml | IL-1RA level (Caco-2+Psd1): <0.66↓ pg/ml | IL-1a level (Caco-2+Psd1): 3.99 pg/mL | IL-1b level (Caco-2+Psd1): <2.26↓ pg/ml | IL-2 level (Caco-2+Psd1): <0.95↓ pg/ml | IL-3 level (Caco-2+Psd1): <0.60↓ pg/ml | IL-4 level (Caco-2+Psd1): 2.07 pg/mL | IL-5 level (Caco-2+Psd1): <0.30↓ pg/ml | IL-6 level (Caco-2+Psd1): 2.29 pg/mL | IL-7 level (Caco-2+Psd1): <0.38↓ pg/ml | IL-8 level (Caco-2+Psd1): 11.44 pg/mL | IL-9 level (Caco-2+Psd1): <2.08↓ pg/ml | IL-10 level (Caco-2+Psd1): <1.24↓ pg/ml | IL-12 (p40) level (Caco-2+Psd1): <3.56↓ pg/ml | IL-12 (p70) level (Caco-2+Psd1): <1.68↓ pg/ml | IL-13 level (Caco-2+Psd1): 6.35 pg/mL | IL-15 level (Caco-2+Psd1): <1.43↓ pg/ml | IL-17A level (Caco-2+Psd1): <2.09↓ pg/ml | IL-17E/IL-25 level (Caco-2+Psd1): <18.85↓ pg/ml | IL-17F level (Caco-2+Psd1): <19.03↓ pg/ml | IL-18 level (Caco-2+Psd1): 3.42 pg/mL | IL-22 level (Caco-2+Psd1): <5.23↓ pg/ml | IL-27 level (Caco-2+Psd1): <11.43↓ pg/ml | IP-10 level (Caco-2+Psd1): 7.04 pg/mL | M-GSF level (Caco-2+Psd1): <24.28↓ pg/ml | MCP-1 level (Caco-2+Psd1): <2.03↓ pg/ml | MCP-3 level (Caco-2+Psd1): <4.18↓ pg/ml | MDC level (Caco-2+Psd1): <0.30↓ pg/ml | MIG level (Caco-2+Psd1): <3.51↓ pg/ml | MIP-1a level (Caco-2+Psd1): <1.88↓ pg/ml | MIP-1b level (Caco-2+Psd1): <0.16↓ pg/ml | PDGF-AA level (Caco-2+Psd1): 347.49 pg/mL | PDGF-AB/BB level (Caco-2+Psd1): <5.84↓ pg/ml | RANTES level (Caco-2+Psd1): <0.62↓ pg/ml | TGF-a level (Caco-2+Psd1): 0.67 pg/mL | TNFa level (Caco-2+Psd1): <3.89↓ pg/ml | TNFb level (Caco-2+Psd1): 5.02 pg/mL | VEGFa level (Caco-2+Psd1): 413.86 pg/mL | sCD40L level (Caco-2+Psd1): <4.88↓ pg/ml | IL-6, IL-8/CXCL8, and IP-10 production (Caco-2, 2 μM apical): increase | direct immunomodulatory action on epithelial cells (Caco-2, 2 μM apical): no significant direct immunomodulatory action
